From ChEMBL document CHEMBL1130625, “Synthesis and antibacterial activity of novel 7-(3-substituted-3 or 4-trifluoromethyl-1-pyrrolidinyl)-8-methoxyfluoroquinolones” (1998)
Values after ≈ are worked out from the molar mass of the structure shown.

Assays:
Proteus mirabilis = assay: Compound was tested for antibacterial activity against gram negative Proteus mirabilis JY-10; type: functional
Proteus vulgaris [1] = assay: Compound was tested for antibacterial activity against gram negative Proteus vulgaris No.33; type: functional
Pseudomonas aeruginosa [2] = assay: Compound was tested for antibacterial activity against gram negative Pseudomonas aeruginosa K-13; type: functional
Pseudomonas aeruginosa [3] = assay: Compound was tested for antibacterial activity against gram negative Pseudomonas aeruginosa PAO1; type: functional
Escherichia coli [4] = assay: Compound was tested for antibacterial activity against gram negative Escherichia coli CSH2/RK1; type: functional
Klebsiella oxytoca = assay: Compound was tested for antibacterial activity against gram negative Klebsiella oxytoca GN 10650; type: functional
Staphylococcus aureus [5] = assay: Compound was tested for antibacterial activity against gram positive Staphylococcus aureus JS-1; type: functional
Enterococcus faecalis = assay: Compound was tested for antibacterial activity against gram positive Enterococcus faecalis 1373; type: functional
Streptococcus pyogenes = assay: Compound was tested for antibacterial activity against gram positive Streptococcus pyogenes cook
Proteus vulgaris [6] = assay: Compound was tested for antibacterial activity against gram negative Proteus vulgaris KS-134; type: functional
Pseudomonas aeruginosa [7] = assay: Compound was tested for antibacterial activity against gram negative Pseudomonas aeruginosa KP-254; type: functional
Escherichia coli [8] = assay: Compound was tested for antibacterial activity against gram negative Escherichia coli CSH2/RE45; type: functional
Klebsiella pneumoniae [9] = assay: Compound was tested for antibacterial activity against gram negative Klebsiella pneumoniae KC-1; type: functional
Staphylococcus aureus [10] = assay: Compound was tested for antibacterial activity against gram positive Staphylococcus aureus KP-90-3; type: functional
Serratia marcescens = assay: Compound was tested for antibacterial activity against gram negative Serratia marcescens No.16-2; type: functional
Citrobacter freundii [11] = assay: Compound was tested for antibacterial activity against gram negative Citrobacter freundii KP-29; type: functional
Enterobacter cloacae = assay: Compound was tested for antibacterial activity against gram negative Enterobacter cloacae Nek39; type: functional
Citrobacter freundii [12] = assay: Compound was tested for antibacterial activity against gram negative Citrobacter freundii No.7; type: functional
Burkholderia cepacia = assay: Compound was tested for antibacterial activity against gram negative Burkholderia cepacia 23; type: functional
[13] = test system: Acinetobacter calcoaceticus; assay: Compound was tested for antibacterial activity against gram negative Acinetobacter calcoaceticus No.4; type: functional
Escherichia coli [14] = assay: Compound was tested for antibacterial activity against gram negative Escherichia coli ML4707; type: functional
Escherichia coli [15] = assay: Compound was tested for antibacterial activity against gram negative Escherichia coli NIHJ JC-2; type: functional
Pseudomonas aeruginosa [16] = assay: Compound was tested for antibacterial activity against gram negative Pseudomonas aeruginosa AK109; type: functional
Klebsiella pneumoniae [17] = assay: Compound was tested for antibacterial activity against gram negative Klebsiella pneumoniae No.42; type: functional
Staphylococcus aureus [18] = assay: Compound was tested for antibacterial activity against gram positive Staphylococcus aureus FDA 209P JC-1; type: functional
Staphylococcus aureus [19] = assay: Compound was tested for antibacterial activity against gram positive Staphylococcus aureus smith; type: functional
[20] = Proteus mirabilis, read-out: MIC
[21] = Proteus vulgaris, read-out: MIC
[22] = Pseudomonas aeruginosa, read-out: MIC
[23] = Escherichia coli, read-out: MIC
[24] = Klebsiella oxytoca, read-out: MIC
[25] = Staphylococcus aureus, read-out: MIC
[26] = Enterococcus faecalis, read-out: MIC
[27] = Streptococcus pyogenes, read-out: MIC
[28] = Klebsiella pneumoniae, read-out: MIC
[29] = Serratia marcescens, read-out: MIC
[30] = Citrobacter freundii, read-out: MIC
[31] = Enterobacter cloacae, read-out: MIC
[32] = Burkholderia cepacia, read-out: MIC
[33] = Acinetobacter calcoaceticus, read-out: MIC

COc1c(N2C[C@@H](CN)[C@H](C(F)(F)F)C2)c(F)cc2c(=O)c(C(=O)O)cn(C3CC3)c12.Cl showed an MIC (Proteus mirabilis) of 0.05 µg/mL, an MIC (Proteus vulgaris [1]) of 0.05 µg/mL and an MIC (Pseudomonas aeruginosa [2]) of 12.5 µg/mL. The MIC (Pseudomonas aeruginosa [3]) was 1.56 µg/mL, the MIC (Escherichia coli [4]) was 0.39 µg/mL and the MIC (Klebsiella oxytoca) was 0.1 µg/mL. The MIC (Staphylococcus aureus [5]) was less than 0.006 µg/mL, the MIC (Enterococcus faecalis) was 0.025 µg/mL and the MIC (Streptococcus pyogenes) was 0.013 µg/mL. The MIC (Proteus vulgaris [6]) was 50 µg/mL, the MIC (Pseudomonas aeruginosa [7]) was 100 µg/mL and the MIC (Escherichia coli [8]) was 0.39 µg/mL. For the same compound, the MIC (Klebsiella pneumoniae [9]) was 0.05 µg/mL, the MIC (Staphylococcus aureus [10]) was 0.39 µg/mL and the MIC (Serratia marcescens) was 0.39 µg/mL. It also gave an MIC (Citrobacter freundii [11]) of 12.5 µg/mL, an MIC (Enterobacter cloacae) of 0.39 µg/mL and an MIC (Citrobacter freundii [12]) of 0.78 µg/mL. It also gave an MIC (Burkholderia cepacia) of 1.56 µg/mL, an MIC [13] of 0.1 µg/mL and an MIC (Escherichia coli [14]) of 0.025 µg/mL. It also gave an MIC (Escherichia coli [15]) of 0.025 µg/mL, an MIC (Pseudomonas aeruginosa [16]) of 1.56 µg/mL and an MIC (Klebsiella pneumoniae [17]) of 0.1 µg/mL. The MIC (Staphylococcus aureus [18]) was 0.025 µg/mL.

For COc1c(N2CC[C@@](CO)(C(F)(F)F)C2)c(F)cc2c(=O)c(C(=O)O)cn(C3CC3)c12, the MIC (Proteus mirabilis; [20]) was 0.39 µg/mL (≈ 0.878 µM), the MIC (Proteus vulgaris [1]; [21]) was 1.56 µg/mL (≈ 3.51 µM) and the MIC (Pseudomonas aeruginosa [2]; [22]) was 50 µg/mL (≈ 113 µM). It also gave an MIC (Pseudomonas aeruginosa [3]; [22]) of 12.5 µg/mL (≈ 28.1 µM), an MIC (Escherichia coli [4]; [23]) of 25 µg/mL (≈ 56.3 µM) and an MIC (Klebsiella oxytoca; [24]) of 3.13 µg/mL (≈ 7.04 µM). It also gave an MIC (Staphylococcus aureus [5]; [25]) of 0.05 µg/mL (≈ 0.113 µM), an MIC (Enterococcus faecalis; [26]) of 0.39 µg/mL (≈ 0.878 µM) and an MIC (Streptococcus pyogenes; [27]) of 0.39 µg/mL (≈ 0.878 µM). The MIC (Proteus vulgaris [6]; [21]) was 100 µg/mL (≈ 225 µM), the MIC (Pseudomonas aeruginosa [7]; [22]) was greater than 100 µg/mL and the MIC (Escherichia coli [8]; [23]) was 25 µg/mL (≈ 56.3 µM). It also gave an MIC (Klebsiella pneumoniae [9]; [28]) of 1.56 µg/mL (≈ 3.51 µM), an MIC (Staphylococcus aureus [10]; [25]) of 3.13 µg/mL (≈ 7.04 µM) and an MIC (Serratia marcescens; [29]) of 12.5 µg/mL (≈ 28.1 µM). For the same compound, the MIC (Citrobacter freundii [11]; [30]) was greater than 100 µg/mL, the MIC (Enterobacter cloacae; [31]) was 6.25 µg/mL (≈ 14.1 µM) and the MIC (Staphylococcus aureus [19]) was 0.025 µg/mL (≈ 0.0563 µM). For the same compound, the MIC (Citrobacter freundii [12]; [30]) was 25 µg/mL (≈ 56.3 µM), the MIC (Burkholderia cepacia; [32]) was 3.13 µg/mL (≈ 7.04 µM) and the MIC [13, 33] was 1.56 µg/mL (≈ 3.51 µM). The MIC (Escherichia coli [14]; [23]) was 0.05 µg/mL (≈ 0.113 µM), the MIC (Escherichia coli [15]; [23]) was 1.56 µg/mL (≈ 3.51 µM) and the MIC (Pseudomonas aeruginosa [16]; [22]) was 12.5 µg/mL (≈ 28.1 µM). The MIC (Klebsiella pneumoniae [17]; [28]) was 3.13 µg/mL (≈ 7.04 µM) and the MIC (Staphylococcus aureus [18]; [25]) was 0.1 µg/mL (≈ 0.225 µM).

In the case of COc1c(N2C[C@@H](C(F)(F)F)[C@@H](N)C2)c(F)cc2c(=O)c(C(=O)O)cn(C3CC3)c12.Cl, the MIC (Proteus mirabilis; [20]) is reported as 0.2 µg/mL, the MIC (Proteus vulgaris [1]; [21]) is reported as 0.39 µg/mL and the MIC (Pseudomonas aeruginosa [2]; [22]) is reported as 50 µg/mL. For the same compound, the MIC (Pseudomonas aeruginosa [3]; [22]) was 3.13 µg/mL, the MIC (Escherichia coli [4]; [23]) was 3.13 µg/mL and the MIC (Klebsiella oxytoca; [24]) was 0.39 µg/mL. The MIC (Staphylococcus aureus [5]; [25]) was 0.05 µg/mL, the MIC (Enterococcus faecalis; [26]) was 0.39 µg/mL and the MIC (Streptococcus pyogenes; [27]) was 0.39 µg/mL. For the same compound, the MIC (Proteus vulgaris [6]; [21]) was 100 µg/mL, the MIC (Pseudomonas aeruginosa [7]; [22]) was greater than 100 µg/mL and the MIC (Escherichia coli [8]; [23]) was 3.13 µg/mL. For the same compound, the MIC (Klebsiella pneumoniae [9]; [28]) was 0.2 µg/mL, the MIC (Staphylococcus aureus [10]; [25]) was 1.56 µg/mL and the MIC (Serratia marcescens; [29]) was 3.13 µg/mL. It also gave an MIC (Citrobacter freundii [11]; [30]) of 100 µg/mL, an MIC (Enterobacter cloacae; [31]) of 3.13 µg/mL and an MIC (Staphylococcus aureus [19]) of 0.025 µg/mL. For the same compound, the MIC (Citrobacter freundii [12]; [30]) was 3.13 µg/mL, the MIC (Burkholderia cepacia; [32]) was 1.56 µg/mL and the MIC [13, 33] was 0.2 µg/mL. The MIC (Escherichia coli [14]; [23]) was 0.1 µg/mL, the MIC (Escherichia coli [15]; [23]) was 0.2 µg/mL and the MIC (Pseudomonas aeruginosa [16]; [22]) was 6.25 µg/mL. For the same compound, the MIC (Klebsiella pneumoniae [17]; [28]) was 0.39 µg/mL and the MIC (Staphylococcus aureus [18]; [25]) was 0.05 µg/mL.
